Relative viability data for six cell lines are collected here from the supplement of paper PMC10307832.

Test in all cases: relative viability (nuclei count vs DMSO), 5 days (fraction); higher = more cells survive
Compound in the experiment “Adavosertib + Phenformin”: C=CCn1c(=O)c2cnc(Nc3ccc(N4CCN(C)CC4)cc3)nc2n1-c1cccc(C(C)(C)O)n1 [Adavosertib] + N=C(N)NC(=N)NCCc1ccccc1 [Phenformin] (partner 250 µM)
A digest of the protocol:
(§1)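 The day after seeding in 1536-well plates, lung cancer cell lines were treated by pin tool with a single drug, or with a fixed anchor-drug dose together with five library-drug doses (not always all listed) in √10 steps. After 5 days, a combined fix-and-stain solution (final 0.05% Triton X-100, 1% formaldehyde, 1 ug/ml Hoechst) was added. Nuclei counted on 4× images gave relative viability as treated counts over vehicle counts, reported as the median of duplicate plates.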

Compound in the experiment “Nelarabine + Trametinib”: COc1nc(N)nc2c1ncn2[C@@H]1O[C@H](CO)[C@@H](O)[C@@H]1O [Nelarabine] + CC(=O)Nc1cccc(-n2c(=O)n(C3CC3)c(=O)c3c(Nc4ccc(I)cc4F)n(C)c(=O)c(C)c32)c1 [Trametinib] (partner 0.02 µM)
In short, it runs like this:
as §1

Compound in the experiment “Nelarabine + Pictilisib”: COc1nc(N)nc2c1ncn2[C@@H]1O[C@H](CO)[C@@H](O)[C@@H]1O [Nelarabine] + CS(=O)(=O)N1CCN(Cc2cc3nc(-c4cccc5[nH]ncc45)nc(N4CCOCC4)c3s2)CC1 [Pictilisib] (partner 1 µM)
A digest of the protocol:
as §1

Compound in the experiment “Nelarabine + Vorinostat”: COc1nc(N)nc2c1ncn2[C@@H]1O[C@H](CO)[C@@H](O)[C@@H]1O [Nelarabine] + O=C(CCCCCCC(=O)Nc1ccccc1)NO [Vorinostat] (partner 1 µM)
In short, it runs like this: as §1

For the cell line NCI-H2228, the relative viability with Adavosertib + Phenformin (first compound 0.01 µM) amounted to 0.252; with Adavosertib + Phenformin (first compound 0.03162 µM), 0.27; with Adavosertib + Phenformin (first compound 0.1 µM) it was 0.257; in the experiment with Adavosertib + Phenformin (first compound 0.3162 µM), 0.243; with Nelarabine + Trametinib (first compound 0.01 µM), 0.575; in the experiment with Nelarabine + Trametinib (first compound 0.03162 µM) it was 0.469. For the same cell line, the relative viability in the experiment with Nelarabine + Trametinib (first compound 0.1 µM) was found to be 0.29; with Nelarabine + Trametinib (first compound 0.3162 µM), 0.55; with Nelarabine + Trametinib (first compound 1 µM), 0.668; with Nelarabine + Pictilisib (first compound 0.01 µM), 0.275; with Nelarabine + Pictilisib (first compound 0.03162 µM) it was 0.235; with Nelarabine + Pictilisib (first compound 0.3162 µM), 0.452. Further, the relative viability in the experiment with Nelarabine + Pictilisib (first compound 1 µM) is 0.268; with Nelarabine + Vorinostat (first compound 0.01 µM), 0.634; with Nelarabine + Vorinostat (first compound 0.03162 µM), 0.569; in the experiment with Nelarabine + Vorinostat (first compound 0.1 µM), 0.387; with Nelarabine + Vorinostat (first compound 0.3162 µM) it was 0.495; in the experiment with Nelarabine + Vorinostat (first compound 1 µM), 0.792.
In the case of NCI-H2347, the relative viability with Adavosertib + Phenformin (first compound 0.01 µM) was found to be 0.306; in the experiment with Adavosertib + Phenformin (first compound 0.03162 µM), 0.496; with Adavosertib + Phenformin (first compound 0.1 µM), 0.5; in the experiment with Adavosertib + Phenformin (first compound 0.3162 µM), 0.411; in the experiment with Nelarabine + Trametinib (first compound 0.01 µM) it was 0.338; with Nelarabine + Trametinib (first compound 0.03162 µM), 0.3. The relative viability in the experiment with Nelarabine + Trametinib (first compound 0.1 µM) stood at 0.307; with Nelarabine + Trametinib (first compound 0.3162 µM) it was 0.304; in the experiment with Nelarabine + Trametinib (first compound 1 µM), 0.27; in the experiment with Nelarabine + Pictilisib (first compound 0.01 µM), 0.555; with Nelarabine + Pictilisib (first compound 0.03162 µM) it was 0.303; in the experiment with Nelarabine + Pictilisib (first compound 0.1 µM), 0.766. Also, the relative viability with Nelarabine + Pictilisib (first compound 0.3162 µM) amounted to 0.726; in the experiment with Nelarabine + Pictilisib (first compound 1 µM) it was 0.606; with Nelarabine + Vorinostat (first compound 0.01 µM), 0.584; with Nelarabine + Vorinostat (first compound 0.03162 µM), 0.69; in the experiment with Nelarabine + Vorinostat (first compound 0.1 µM), 0.569; in the experiment with Nelarabine + Vorinostat (first compound 0.3162 µM), 0.61. Further, the relative viability with Nelarabine + Vorinostat (first compound 1 µM) is 0.455.
For the cell line NCI-H2405, the relative viability with Adavosertib + Phenformin (first compound 0.01 µM) came out at 0.458; with Adavosertib + Phenformin (first compound 0.03162 µM) it was 0.414; with Adavosertib + Phenformin (first compound 0.1 µM), 0.405; with Adavosertib + Phenformin (first compound 0.3162 µM), 0.396; with Nelarabine + Trametinib (first compound 0.01 µM) it was 0.642; in the experiment with Nelarabine + Trametinib (first compound 0.03162 µM) it was 0.612. Further, the relative viability is 0.528 in the experiment with Nelarabine + Trametinib (first compound 0.1 µM); 0.677 with Nelarabine + Trametinib (first compound 0.3162 µM); 0.643 in the experiment with Nelarabine + Trametinib (first compound 1 µM); 0.532 with Nelarabine + Pictilisib (first compound 0.01 µM); 0.464 with Nelarabine + Pictilisib (first compound 0.03162 µM); 0.382 with Nelarabine + Pictilisib (first compound 0.1 µM). Besides, the relative viability came to 0.49 with Nelarabine + Pictilisib (first compound 0.3162 µM); 0.492 with Nelarabine + Pictilisib (first compound 1 µM); 1.2 with Nelarabine + Vorinostat (first compound 0.01 µM); 0.988 with Nelarabine + Vorinostat (first compound 0.03162 µM); 1.05 with Nelarabine + Vorinostat (first compound 0.1 µM); 1.03 with Nelarabine + Vorinostat (first compound 0.3162 µM). For the same cell line, the relative viability in the experiment with Nelarabine + Vorinostat (first compound 1 µM) came out at 0.886.
Regarding NCI-H3122, the relative viability with Adavosertib + Phenformin (first compound 0.01 µM) is 0.365; with Adavosertib + Phenformin (first compound 0.03162 µM), 0.402; with Adavosertib + Phenformin (first compound 0.1 µM), 0.355; with Adavosertib + Phenformin (first compound 0.3162 µM), 0.365; with Nelarabine + Trametinib (first compound 0.01 µM) it was 0.307; with Nelarabine + Trametinib (first compound 0.03162 µM) it was 0.163. Further, the relative viability in the experiment with Nelarabine + Trametinib (first compound 0.3162 µM) is 0.23; with Nelarabine + Trametinib (first compound 1 µM) it was 0.237; with Nelarabine + Pictilisib (first compound 0.01 µM), 0.588; with Nelarabine + Pictilisib (first compound 0.03162 µM), 0.388; in the experiment with Nelarabine + Pictilisib (first compound 0.3162 µM), 0.63; with Nelarabine + Pictilisib (first compound 1 µM), 0.611. Besides, the relative viability worked out at 1.38 with Nelarabine + Vorinostat (first compound 0.01 µM), 0.833 in the experiment with Nelarabine + Vorinostat (first compound 0.03162 µM), 1.17 with Nelarabine + Vorinostat (first compound 0.3162 µM) and 1.02 with Nelarabine + Vorinostat (first compound 1 µM).
As to PC-3 [JPC-3], the relative viability with Adavosertib + Phenformin (first compound 0.01 µM) was 0.458; with Adavosertib + Phenformin (first compound 0.03162 µM) it was 0.46; with Adavosertib + Phenformin (first compound 0.1 µM) it was 0.498; in the experiment with Adavosertib + Phenformin (first compound 0.3162 µM), 0.488; in the experiment with Nelarabine + Trametinib (first compound 0.01 µM), 0.753; with Nelarabine + Trametinib (first compound 0.03162 µM) it was 0.808. For the same cell line, the relative viability with Nelarabine + Trametinib (first compound 0.1 µM) stood at 0.683; with Nelarabine + Trametinib (first compound 0.3162 µM) it was 0.672; with Nelarabine + Trametinib (first compound 1 µM), 0.775; with Nelarabine + Pictilisib (first compound 0.01 µM) it was 0.599; with Nelarabine + Pictilisib (first compound 0.03162 µM) it was 0.853; with Nelarabine + Pictilisib (first compound 0.1 µM), 0.7. In addition, the relative viability in the experiment with Nelarabine + Pictilisib (first compound 0.3162 µM) is 0.895; with Nelarabine + Pictilisib (first compound 1 µM), 0.749; with Nelarabine + Vorinostat (first compound 0.01 µM), 0.927; with Nelarabine + Vorinostat (first compound 0.03162 µM), 0.924; with Nelarabine + Vorinostat (first compound 0.1 µM) it was 0.918; with Nelarabine + Vorinostat (first compound 0.3162 µM), 0.957. Moreover, the relative viability in the experiment with Nelarabine + Vorinostat (first compound 1 µM) is 0.709.
In the case of PC-14, the relative viability worked out at 0.508 with Adavosertib + Phenformin (first compound 0.01 µM); 0.619 with Adavosertib + Phenformin (first compound 0.03162 µM); 0.671 in the experiment with Adavosertib + Phenformin (first compound 0.1 µM); 0.291 in the experiment with Adavosertib + Phenformin (first compound 0.3162 µM); 0.894 with Nelarabine + Trametinib (first compound 0.01 µM); 0.87 with Nelarabine + Trametinib (first compound 0.03162 µM). The relative viability with Nelarabine + Trametinib (first compound 0.1 µM) came to 0.766; with Nelarabine + Trametinib (first compound 0.3162 µM), 0.844; with Nelarabine + Trametinib (first compound 1 µM), 0.774; with Nelarabine + Pictilisib (first compound 0.01 µM), 1.17; in the experiment with Nelarabine + Pictilisib (first compound 0.03162 µM), 0.759; in the experiment with Nelarabine + Pictilisib (first compound 0.1 µM) it was 0.563. The relative viability with Nelarabine + Pictilisib (first compound 0.3162 µM) was 0.815; with Nelarabine + Pictilisib (first compound 1 µM), 0.653; with Nelarabine + Vorinostat (first compound 0.01 µM), 0.832; in the experiment with Nelarabine + Vorinostat (first compound 0.03162 µM) it was 0.736; with Nelarabine + Vorinostat (first compound 0.1 µM) it was 0.662; with Nelarabine + Vorinostat (first compound 0.3162 µM), 0.578. In the experiment with Nelarabine + Vorinostat (first compound 1 µM), the relative viability is 0.691.
